Assay: molar heat capacity at constant pressure
Conditions: 101.33 kPa, Crystal

[Gd+3].[Gd+3].[O-2].[O-2].[O-2] [gadolinium sesquioxide]
Conditions | molar heat capacity at constant pressure [J/K/mol]
5.34 K | 4.24
5.84 K | 5.88
6.65 K | 6.66
8.48 K | 4.7
10.16 K | 3.95
11.17 K | 3.51
11.58 K | 3.33
13.24 K | 3.19
13.72 K | 3.18
14.69 K | 3.17
15.56 K | 3.2
15.84 K | 3.18
16.98 K | 3.47
17.06 K | 3.5
18.14 K | 3.76
18.46 K | 3.8
19.29 K | 4.28
19.86 K | 4.28
20 K | 4.32
20.63 K | 4.51
21.24 K | 4.73
21.97 K | 5.08
22.65 K | 5.27
23.31 K | 5.65
23.91 K | 5.87
24.66 K | 6.36
25 K | 6.55
25.22 K | 6.67
26.02 K | 7.26
26.08 K | 7.21
26.79 K | 7.55
27.33 K | 7.65
27.99 K | 7.92
28.5 K | 8.29
29.64 K | 8.93
30 K | 9.163
31.19 K | 9.927
32.73 K | 10.96
34.3 K | 11.95
35 K | 12.42
35.9 K | 13.02
37.53 K | 13.85
39.19 K | 14.85
40 K | 15.35
40.87 K | 15.9
42.55 K | 17.06
44.25 K | 18.21
45 K | 18.7
45.96 K | 19.33
47.7 K | 20.45
49.45 K | 21.55
50 K | 21.9
51.21 K | 22.67
52.99 K | 23.75
54.78 K | 24.86
56.58 K | 26
58.39 K | 27.1
60 K | 28.03
60.22 K | 28.16
62.05 K | 29.26
63.89 K | 30.33
65.75 K | 31.37
67.61 K | 32.46
69.47 K | 33.54
70 K | 33.85
71.35 K | 34.62
73.23 K | 35.69
75.12 K | 36.68
77.01 K | 37.74
78.91 K | 38.79
80 K | 39.37
80.81 K | 39.79
82.72 K | 40.83
83.39 K | 41.24
84.63 K | 41.9
85.99 K | 42.64
86.55 K | 42.9
88.47 K | 43.84
88.8 K | 44.12
90 K | 44.63
90.39 K | 44.82
91.62 K | 45.57
92.32 K | 45.88
93.14 K | 46.35
93.67 K | 46.53
94.25 K | 46.87
94.44 K | 46.97
94.91 K | 47.23
96.18 K | 47.87
96.86 K | 48.18
97.27 K | 48.4
98.12 K | 48.9
98.79 K | 49.39
100 K | 50.12
100.06 K | 50.15
100.11 K | 50.21
100.72 K | 50.42
102.65 K | 51.08
102.97 K | 51.17
104.58 K | 51.98
105.83 K | 52.6
106.52 K | 53
108.46 K | 54.02
108.7 K | 54.13
110.4 K | 54.87
111.58 K | 55.27
112.35 K | 55.75
114.3 K | 56.56
114.46 K | 56.66
116.25 K | 57.42
117.35 K | 57.9
118.2 K | 58.29
120 K | 58.58
120.15 K | 58.66
120.24 K | 58.72
122.11 K | 59.91
123.15 K | 60.56
124.07 K | 60.93
126.02 K | 61.79
126.04 K | 61.82
127.98 K | 62.72
128.94 K | 63.08
129.95 K | 63.54
131.83 K | 64.33
131.91 K | 64.31
133.87 K | 65.17
134.73 K | 65.5
135.84 K | 65.98
137.64 K | 66.69
137.81 K | 66.76
139.77 K | 67.58
140 K | 67.66
140.55 K | 67.86
141.74 K | 68.33
143.47 K | 69
143.71 K | 69.08
145.68 K | 69.88
146.39 K | 70.15
147.65 K | 70.61
149.31 K | 71.26
149.62 K | 71.38
151.6 K | 72.1
152.23 K | 72.33
153.57 K | 72.82
155.16 K | 73.39
155.55 K | 73.55
157.52 K | 74.24
158.09 K | 74.43
159.5 K | 74.94
160 K | 75.12
161.02 K | 75.46
161.47 K | 75.6
163.45 K | 76.3
163.95 K | 76.42
165.43 K | 76.95
166.88 K | 77.42
167.41 K | 77.62
169.38 K | 78.25
169.82 K | 78.4
171.36 K | 78.94
172.76 K | 79.32
173.34 K | 79.5
175.32 K | 80.12
175.7 K | 80.25
177.31 K | 80.7
178.65 K | 81.16
179.29 K | 81.37
180 K | 81.58
181.27 K | 81.94
181.59 K | 82.04
183.25 K | 82.48
184.54 K | 82.86
185.23 K | 83.08
187.21 K | 83.64
187.49 K | 83.73
189.2 K | 84.23
190.44 K | 84.56
191.18 K | 84.81
193.16 K | 85.14
193.39 K | 85.31
195.15 K | 85.81
196.34 K | 86.05
197.13 K | 86.3
199.11 K | 86.89
199.29 K | 86.89
200 K | 87.05
201.1 K | 87.39
202.24 K | 87.63
203.08 K | 87.88
205.07 K | 88.38
205.19 K | 88.38
207.05 K | 88.8
208.15 K | 89.05
209.04 K | 89.3
211.03 K | 89.8
211.11 K | 89.8
213.01 K | 90.21
214.07 K | 90.46
215 K | 90.71
216.99 K | 91.13
217.03 K | 91.13
218.97 K | 91.54
219.98 K | 91.79
220 K | 91.79
220.96 K | 92.04
222.94 K | 92.46
222.95 K | 92.46
224.93 K | 92.87
225.89 K | 93.04
226.92 K | 93.29
228.85 K | 93.7
228.91 K | 93.62
230.9 K | 94.12
231.81 K | 94.2
232.89 K | 94.45
234.77 K | 94.87
234.87 K | 94.87
236.86 K | 95.28
237.72 K | 95.45
238.17 K | 95.62
238.8 K | 95.53
240 K | 95.87
240.35 K | 95.95
240.69 K | 95.95
242.83 K | 96.36
243.65 K | 96.53
245.3 K | 96.78
246.61 K | 97.03
247.77 K | 97.28
249.58 K | 97.53
250.25 K | 97.61
252.54 K | 98.11
252.72 K | 98.11
255.2 K | 98.19
255.52 K | 98.28
257.67 K | 98.78
258.49 K | 98.86
260 K | 99.11
260.15 K | 99.19
261.46 K | 99.44
262.63 K | 99.61
264.43 K | 99.86
265.1 K | 100
267.4 K | 100.4
267.57 K | 100.4
270.05 K | 100.8
270.36 K | 100.9
272.53 K | 101.2
273.33 K | 101.3
275.01 K | 101.6
276.31 K | 101.8
277.49 K | 102
279.28 K | 102.3
279.96 K | 102.3
280 K | 102.3
282.25 K | 102.7
282.44 K | 102.6
284.92 K | 103
285.23 K | 103.1
287.4 K | 103.4
288.2 K | 103.5
289.88 K | 103.8
291.17 K | 104
292.35 K | 104.1
294.15 K | 104.4
294.83 K | 104.5
297.13 K | 105
297.32 K | 105
298.15 K | 105.1
299.8 K | 105.2
300 K | 105.2
300.11 K | 105.2
302.28 K | 105.4
303.09 K | 105.6
304.77 K | 105.6
304.91 K | 105.8
306.07 K | 106
307.26 K | 106
307.89 K | 106.2
309.06 K | 106.4
309.74 K | 106.4
310.86 K | 106.6
312.04 K | 106.7
312.23 K | 106.7
313.84 K | 106.8
314.72 K | 106.9
315.03 K | 107
316.82 K | 107.2
317.21 K | 107.2
318.02 K | 107.3
319.7 K | 107.4
319.8 K | 107.6
320 K | 107.6
321.01 K | 107.7
322.19 K | 107.8
322.77 K | 108
324 K | 108.1
324.68 K | 108.2
325.75 K | 108.3
326.99 K | 108.4
327.18 K | 108.3
329.67 K | 108.6
331.72 K | 108.9
334.69 K | 109.2
337.67 K | 109.5
340 K | 109.7
340.65 K | 109.8
343.63 K | 110
346.62 K | 110.3
349.6 K | 110.6
352.59 K | 110.8
355.58 K | 111.1
358.57 K | 111.4
360 K | 111.5
361.56 K | 111.6
364.55 K | 111.9
367.55 K | 112
370.55 K | 112.2
373.55 K | 112.5
376.55 K | 112.7
379.55 K | 113
380 K | 113
382.56 K | 113.2
385.56 K | 113.4
388.57 K | 113.6
391.59 K | 113.8
394.6 K | 113.9
397.62 K | 114
400.65 K | 114.2

Source: the NIST ThermoML archive (doi:10.1016/j.jct.2005.02.014)
